Entries after “also recorded” stand apart in the source; their conditions may differ.
Experiments:
Type in all cases: physicochemical
[1] = Dynamic vapor sorption (DVS) hygroscopicity; conditions: from DVS, 20~80% RH
Protocol: The dynamic vapor sorption analysis (DVS) data are collected by TA Instruments Q5000 TGA; the instrument control software is Thermal Advantage and the analysis software is Universal Analysis. Generally, take 1˜10 mg of the sample and place it in a platinum pan, and the weight changes of the sample are recorded during the course of the relative humidity changing from 0% to 80% and then to 0%. According to the specifics of the samples, different adsorption and desorption steps may be used.
The hygroscopicity is obtained by DVS testing of the weight changes between 20%-80% RH.

[2] = Storage stability test (XRPD before and after storing); conditions: for Storage stability (crystal form by XRPD): stored 3 months in desiccator at room temperature; for Storage stability (crystal form by XRPD) / Storage stability (crystal form): room temperature-97% RH, -75% RH, -44% RH or oven of 40° C.; for Storage stability (crystal form): stored for a long time in desiccator at room temperature
Source text: The storage stability test is: storing the sample under constant conditions (i.e. constant humidity or constant temperature) for a certain time, and then comparing the XRPDs before and after storing.

[3] = Competition test (suspension of equal amounts stirred overnight, XRPD); conditions: for Competition test, comparison of stability (position in the rank order): in pure water, room temperature, stirred overnight
Source text: The competition test is: take equal amount of the samples, and respectively place them in isopropanol or in a mixture of water (pure water) and ethanol (wherein the volume percentage of ethanol is 0%, 20%, 50%, 80% and 100%, respectively) to form a suspension, stir it overnight at room temperature, then compare their XRPDs.

[4] = Crystal form stability on stirring in or exposure to water, aqueous ethanol or other solvent; conditions: for crystal form stability when stirred: stirred in water or aqueous ethanol solution at room temperature or high temperature (40° C.); for crystal form stability in water: in water or other water containing system(s)
[5] = Crystal form stability during wet granulation tablet preparation (XRPD); conditions: for crystal form of API after physical blending with excipients: XRPD of Sample 1 vs Sample 3, lactose, microcrystalline cellulose, polyethylene glycol 6000; for crystal form of API in the wet granulation process: XRPD of Sample 2 vs Sample 1, 50% aqueous ethanol solution
Source text: The Known Crystal Form 1, the Known Crystal Form 2 and Crystal Form VI of the present invention are examined for their stability during the formulation preparation of the wet granulation process.
The preparation process of the tablet is a parallel experiment.
(1) Blend API (selected from the Known Crystal Form 1, the Known Crystal Form 2 or Crystal Form VI of the present invention), lactose (monohydrate) and microcrystalline cellulose uniformly.
(2) Make the above mixture into soft materials by using an appropriate amount of 50% aqueous ethanol solution, screen to produce the wet granules and then dry the wet granules.
(3) Granulate the dried sample, blend with polyethylene glycol 6000 uniformly and then compress into tablets.
Respectively, take XRPD tests on the following samples obtained in the formulation preparing process of the Known Crystal Form 1, the Known Crystal Form 2 and Crystal Form VI of the present invention: (Sample 1) the sample obtained by physically blending API, lactose, microcrystalline cellulose with polyethylene glycol 6000 according to the preparation formula; (Sample 2) the sample obtained by granulating with API, lactose, microcrystalline cellulose and polyethylene glycol 6000 according to the “wet granulation” process (excluding the sample obtained after the Step (3)); (Sample 3) excluding API, the sample obtained by physically blending lactose, microcrystalline cellulose with polyethylene glycol 6000 according to the preparation formula.

[6] = Crystal form stability in capsules prepared by wet granulation (XRPD); conditions: for crystal form in capsules: capsules prepared by wet granulation process, XRPD
Source text: The preparation of the capsules containing the crystal forms of the present invention.
3) Blend API (selected from the Known Crystal Form 1, the Known Crystal Form 2 and Crystal Form VI of the present invention), microcrystalline cellulose (avicel) and sodium carboxymethyl starch (SSG) uniformly.
4) Make the above mixture into soft materials by using an appropriate amount of 50% aqueous ethanol solution, then screen to produce the wet granules.
5) Dry the wet granules, grind and disperse uniformly and then transfer them into the capsules.

[7] = Crystal form stability in oral suspension (XRPD); conditions: for crystal form in oral suspension: XRPD
Protocol: The preparation of the oral suspension containing the crystal forms of the present invention.
API (selected from Crystal Form VI of Dabrafenib of the present invention): 2 g;
Blend API (selected from Crystal Form VI of Dabrafenib of the present invention), cocklebur gum, sodium dihydrogen citrate, methylparaben, syrupus simplex and orange flavor, add water to 1,000 mL and stir the mixture uniformly. After that, divide the solution into 100 bottles with 20 mg API in each bottle.

[8] = Particle size distribution (PSD), laser diffraction; conditions: for D10 / D50: dispersant water with 2% tween-80
Source text: The particle size distribution (PSD) plot is obtained using Microtrac S3500 laser diffraction particle size analyzer. The method parameters are as follows: flow velocity of the dispersant is 50%; the dispersant is water (added with 2% tween-80); the sample refractivity is 1.58; the laser source wavelength is 780 nm; and the integral mode is volume.
(§1) The morphology comparison is obtained by PLM testing of particle shape and PSD testing of particle size.

[9] = Polarized light microscopy (PLM) morphology
Source text: Polarized Light Microscope (PLM) plots are collected from XP-500E polarized light microscope (by Shanghai Changfang Optical Instrument Co., Ltd). Place a small amount of powder sample on a slide glass, drip some mineral oil to disperse the powder sample, place the cover slip, then place the sample on the loading table of XP-500E polarized light microscope, choose the appropriate magnitude to observe the morphology of the sample and take pictures thereof.
as §1

[10] = Thermogravimetric analysis (TGA), thermal stability; conditions: for decomposition temperature: TGA, 10° C./min, dry N2; for stability at high temperature (in words): conclusion from DSC/TGA test results
Protocol: The thermogravimetric analysis (TGA) data are collected by TA Instruments Q500 TGA; the instrument control software is Thermal Advantage and the analysis software is Universal Analysis. Generally, take 5˜15 mg sample and place it in a platinum pan, adopt the segmental high-resolution testing mode, and under the protection of 50 mL/min dry N2, heat the sample from room temperature to 300° C. at the heating rate of 10° C./min, the weight changes of the sample during the course are recorded by TA software simultaneously.

[11] = Crystal form stability during wet granulation tablet preparation (XRPD); conditions: tablet prepared by wet granulation, stored 6 months at 40° C./75% RH
[12] = Flowability observed during the experiments

Structure (SMILES)	hygroscopicity (in words) [1]	Storage stability (crystal form by XRPD) [2]	Storage stability (crystal form) [2]	Competition test, comparison of stability (position in the rank order) [3]	crystal form stability when stirred [4]	crystal form of API after physical blending with excipients [5]	crystal form of API in the wet granulation process [5]	crystal form stability in the wet granulation process or in the suspension [5]	crystal form in capsules [6]	crystal form in oral suspension [7]	D10 [8] [μm]	D50 [8] [μm]	Morphology (particle shape) [9]	decomposition temperature [10] [°C]	stability at high temperature (in words) [10]	crystal form stability in water [4]	other results
CC(C)(C)c1nc(-c2cccc(NS(=O)(=O)c3c(F)cccc3F)c2F)c(-c2ccnc(N)n2)s1 [Crystal Form VI, N-[3-[5-(2-aminopyrimidin-4-yl)-2-(tert-butyl)thiazo-4-lyl]-2-fluorophenyl]-2,6-difluorobenzenesulfonamide]	not hygroscopic; also recorded: low hygroscopicity; also recorded: lower than that of the Known Crystal Form 1	its crystal form did not change	stable when stored for a long time	>The Known Crystal Form 1	keeps its form unchanged	keeps unchanged	stable; also recorded: more stable than the Known Crystal Form 1 and the Known Crystal Form 2	keeps its form unchanged	stable	stable	7	18	fine crystals; also recorded: Fine particles	271	very stable at high temperature	–	crystal form stability after tableting ([5]; tablet): stable after tableting; crystal form in capsules on storage ([6]; capsules stored 6 months at 40° C./75% RH): still stable; crystal form in oral suspension on storage ([7]; oral suspension stored 6 months at 40° C./75% RH): still stable; stability of tablet on storage [11]: still stable
CC(C)(C)c1nc(-c2cccc(NS(=O)(=O)c3c(F)cccc3F)c2F)c(-c2ccnc(N)n2)s1 [Crystal Form VII, N-[3-[5-(2-aminopyrimidin-4-yl)-2-(tert-butyl)thiazo-4-lyl]-2-fluorophenyl]-2,6-difluorobenzenesulfonamide]	low hygroscopicity; also recorded: lower than that of the Known Crystal Form 1	its crystal form does not change	stable when stored for a long time	more stable than the Known Crystal Form 1; also recorded: >The Known Crystal Form 2	convert to Crystal Form VI of the present invention	–	–	–	–	–	91	207	rod-shaped crystals; also recorded: good morphology; also recorded: rod-shaped particles in large size; also recorded: Rod shape	270	very stable at high temperature	–	particle size compared with known crystal forms [8]: larger particle size than those of the Known Crystal Form 1 and the Known Crystal Form 2; also recorded: larger than that of the Known Crystal Form 1 and the Known Crystal Form 2; flowability [12]: good and good flowability
CC(C)(C)c1nc(-c2cccc(NS(=O)(=O)c3c(F)cccc3F)c2F)c(-c2ccnc(N)n2)s1 [Known Crystal Form 1, N-{3-[5-(2-amino-4-pyrimidinyl)-2-(1,1-dimethylethyl)-1,3-thiazol-4-yl]-2-fluorophenyl}-2,6-difluorobenzenesulfonamide, reference compound]	some hygroscopicity	–	–	>Crystal Form VII of the present	convert to Crystal Form VI of the present invention; also recorded: unstable	keeps unchanged	partially or totally converted to Crystal Form VI of the present invention	unstable	unstable and has converted to Crystal Form VI of the present invention	unstable and has converted to Crystal Form VI of the present invention	–	–	small block-shaped crystals	–	–	readily converts to other form(s)	Competition test, comparison of stability ([3]; in isopropanol or ethanol): Form 1 >The other three crystal forms.
CC(C)(C)c1nc(-c2cccc(NS(=O)(=O)c3c(F)cccc3F)c2F)c(-c2ccnc(N)n2)s1 [Known Crystal Form 2, N-[3-[5-(2-aminopyrimidin-4-yl)-2-(tert-butyl)thiazo-4-lyl]-2-fluorophenyl]-2,6-difluorobenzenesulfonamide, reference compound]	–	–	–	invention >The Known Crystal Form 2	convert to Crystal Form VI of the present invention; also recorded: unstable	keeps unchanged	partially or totally converted to Crystal Form VI of the present invention	unstable	unstable and has converted to Crystal Form VI of the present invention	unstable and has converted to Crystal Form VI of the present invention	–	–	small block-shaped crystals	–	–	would convert to other form(s)	crystal form conversion in dichloromethane ([4]; stirring in dichloromethane followed by filtering and drying): can convert to the Known Crystal Form 1
CC(C)(C)c1nc(-c2cccc(NS(=O)(=O)c3c(F)cccc3F)c2F)c(-c2ccnc(N)n2)s1 [Known Crystal Form 3, N-[3-[5-(2-aminopyrimidin-4-yl)-2-(tert-butyl)thiazo-4-lyl]-2-fluorophenyl]-2,6-difluorobenzenesulfonamide, reference compound]	–	–	–	–	–	–	–	–	–	–	–	–	–	–	–	may convert to other form(s)	crystal form stability on standing ([2]; placed at room temperature): extremely unstable; also recorded: can convert to the Known Crystal Form 1; also recorded: converts to the Known Crystal Form 1
